Laboratory results: article PMC11542717 (ADMET & DMPK, 2024)
Read-outs that look alike come from different tables or passages of the source.

Legend:
[1] = cited from earlier work; for CHIIAM: pharmaceuticals used for model construction (training set); for CHIIAM (predetermined): calibration set, established by isocratic measurement
[2] = tested on: water flea (Daphnia magna); conditions: 48 h static, immobilization; ECHA database, converted to -log M; cited from earlier work
[3] = type: physicochemical; conditions: IAM PC.DD2 column, pH 7.4, acetonitrile gradient, UV filters
[4] = tested on: fish species; conditions: 96 h static; ECHA database, mg/L converted to -log M; cited from earlier work

CC1COc2c(N3CCN(C)CC3)c(F)cc3c(=O)c(C(=O)O)cn1c23 (centres unmarked) [Ofloxacin]
CHIIAM [1]: 28.9

COc1cc(O)c(C(=O)c2ccccc2)cc1S(=O)(=O)O [Sulisobenzone, sulisobenzone]
pEC50 water flea (Daphnia magna), Experimental [2]: 3.79
CHIIAM (chromatographic phospholipid binding) [3]: 14.3
CHIIAM (chromatographic phospholipid binding) ([3]; listed as sulisobenzone): < 20
pLC50 fish, Experimental [4]: 2.69

COCCc1ccc(OCC(O)CNC(C)C)cc1 (centres unmarked) [Metoprolol]
CHIIAM [1]: 35.4

CCCCC(CC)COC(=O)c1ccc(N(C)C)cc1 (centres unmarked) [Padimate O, padimate O]
pEC50 water flea (Daphnia magna), Experimental [2]: 4.69
CHIIAM (chromatographic phospholipid binding) [3]: 53.6
pLC50 fish, Experimental [4]: 4.85

Cn1c(=O)c2[nH]cnc2n(C)c1=O [Theophylline]
CHIIAM [1]: 1.80

CCCCCC(=O)c1ccccc1 [Hexanophenone]
CHIIAM (predetermined) [1]: 41.8

COc1ccc(C(=O)c2ccccc2)c(O)c1 [Oxybenzone, oxybenzone]
pEC50 water flea (Daphnia magna), Experimental [2]: 4.92
CHIIAM (chromatographic phospholipid binding) [3]: 40.8
pLC50 fish, Experimental [4]: 4.78

CCCCCCC(=O)c1ccccc1 [Heptanophenone]
CHIIAM (predetermined) [1]: 45.7

CCCC(=O)c1ccccc1 [Butyrophenone]
CHIIAM (predetermined) [1]: 32.0

CCCCC(CC)COC(=O)c1ccccc1O (centres unmarked) [Octisalate, octisalate]
pEC50 water flea (Daphnia magna), Experimental [2]: 5.58
CHIIAM (chromatographic phospholipid binding) [3]: 55.1
CHIIAM (chromatographic phospholipid binding) ([3]; listed as octisalate): > 45
pLC50 fish, Experimental [4]: 4.40

CCCCC(=O)c1ccccc1 [Valerophenone]
CHIIAM (predetermined) [1]: 37.3

Nc1ccc(S(=O)(=O)Nc2ccc(Cl)nn2)cc1 [Sulfachlorpyridazine]
CHIIAM [1]: 7.67

Cc1ncc([N+](=O)[O-])n1CCO [Metronidazole]
CHIIAM [1]: -4.81

COc1ccc(NS(=O)(=O)c2ccc(N)cc2)nn1 [Sulfamethoxypyridazine]
CHIIAM [1]: 10.9

COc1ccc(C(=O)CC(=O)c2ccc(C(C)(C)C)cc2)cc1 [Avobenzone, avobenzone]
pEC50 water flea (Daphnia magna), Experimental [2]: 5.20
CHIIAM (chromatographic phospholipid binding) [3]: 53.4
CHIIAM (chromatographic phospholipid binding) ([3]; listed as avobenzone): > 45

CC1CCC(C(C)C)C(OC(=O)c2ccccc2N)C1 (centres unmarked) [Meradimate, meradimate]
pEC50 water flea (Daphnia magna), Experimental [2]: 5.24
CHIIAM (chromatographic phospholipid binding) [3]: 56.9
CHIIAM (chromatographic phospholipid binding) ([3]; listed as meradimate): > 45
pLC50 fish, Experimental [4]: 4.48

CCC(=O)c1ccccc1 [Propiophenone]
CHIIAM (predetermined) [1]: 25.9

CC1(C)S[C@@H]2[C@H](NC(=O)[C@H](N)c3ccccc3)C(=O)N2[C@H]1C(=O)O [Ampicillin]
CHIIAM [1]: 10.5

Nc1ccc(C(=O)O)cc1 [4-Aminobenzoic Acid, 4-aminobenzoic acid]
pEC50 water flea (Daphnia magna), Experimental [2]: 3.26
CHIIAM (chromatographic phospholipid binding) [3]: 3.30
CHIIAM (chromatographic phospholipid binding) ([3]; listed as aminobenzoic acid): < 20
pLC50 fish, Experimental [4]: 2.12

O=C(O)Cc1ccccc1Nc1c(Cl)cccc1Cl [Diclofenac]
CHIIAM [1]: 34.1

CCc1nc(N)nc(N)c1-c1ccc(Cl)cc1 [Pyrimethamine]
CHIIAM [1]: 38.2

Nc1ccc(S(=O)(=O)Nc2nccs2)cc1 [Sulfathiazole]
CHIIAM [1]: 11.0

COc1cc(NS(=O)(=O)c2ccc(N)cc2)nc(OC)n1 [Sulfadimethoxine]
CHIIAM [1]: 13.8

COc1ccc(C(=O)c2ccccc2O)c(O)c1 [Dioxybenzone, dioxybenzone]
pEC50 water flea (Daphnia magna), Experimental [2]: 4.76
CHIIAM (chromatographic phospholipid binding) [3]: 39.9

O=S(=O)(O)c1ccc2[nH]c(-c3ccccc3)nc2c1 [Ensulizole, ensulizole]
pEC50 water flea (Daphnia magna), Experimental [2]: 3.44
CHIIAM (chromatographic phospholipid binding) [3]: 13.2
CHIIAM (chromatographic phospholipid binding) ([3]; listed as ensulizole): < 20
pLC50 fish, Experimental [4]: 2.91

CCCCC(CC)COC(=O)C(C#N)=C(c1ccccc1)c1ccccc1 (centres unmarked) [Octocrylene, octocrylene]
pEC50 water flea (Daphnia magna), Experimental [2]: 5.06
CHIIAM (chromatographic phospholipid binding) [3]: 60.0
CHIIAM (chromatographic phospholipid binding) ([3]; listed as octocrylene): > 45
pLC50 fish, Experimental [4]: 5.65

CCCCCCCC(=O)c1ccccc1 [Octanophenone]
CHIIAM (predetermined) [1]: 49.4

CN(C)CCC=C1c2ccccc2CCc2ccccc21 [Amitriptyline]
CHIIAM [1]: 55.3

CC1CC(OC(=O)c2ccccc2O)CC(C)(C)C1 (centres unmarked) [Homosalate, homosalate]
CHIIAM (chromatographic phospholipid binding) [3]: 56.8
CHIIAM (chromatographic phospholipid binding) ([3]; listed as homosalate): > 45

CCCCC(CC)COC(=O)C=Cc1ccc(OC)cc1 (centres unmarked) [Octinoxate, octinoxate]
pEC50 water flea (Daphnia magna), Experimental [2]: 5.03
CHIIAM (chromatographic phospholipid binding) [3]: 54.2
CHIIAM (chromatographic phospholipid binding) ([3]; listed as octinoxate): > 45

COc1ccc([C@@H]2Sc3ccccc3N(CCN(C)C)C(=O)[C@@H]2OC(C)=O)cc1 [Diltiazem]
CHIIAM [1]: 42.0

Cc1ccc(C)c(OCCCC(C)(C)C(=O)O)c1 [Gemfibrozil]
CHIIAM [1]: 33.7

NC(=O)N1c2ccccc2C=Cc2ccccc21 [Carbamazepine]
CHIIAM [1]: 26.9

CC(=O)c1ccccc1 [Acetophenone]
CHIIAM (predetermined) [1]: 17.2
